Consider eleven molecules from paper PMC4145318, “Marinopyrrole Derivatives with Sulfide Spacers as Selective Disruptors of Mcl-1 Binding to Pro-Apoptotic Protein Bim” (Marine Drugs, 2014).

Where two headings read alike, the source gives them in different places.

The subject of data set [1] is MDA-MB-468 cells. Kind of data set: MTT assay. The note with it: read-out: estimated IC50, inhibition of MDA-MB-468 cell growth.
Experimental: In addition, the ability of the compounds to inhibit tumor growth of MDA-MB-468 cells was determined by MTT assays. To this end, MDA-MB-468 cells were treated for 48 h with the compounds at 0, 0.5, 5 and 50 μM, and the cells were processed for MTT assays as described by us [39].
MDA-MB-468 cells were treated and processed for MTT, DAPI nuclear staining and phase imaging of cells as described previously by us [39].
Data set [2] relates to MDA-MB-468 cells. Kind of data set: Apoptosis induction (cleaved caspase 3, Western blotting). The note with it: 40 μM for 16 h.
Experimental: (§2) The cells were then processed for Western blotting exactly as described by us previously [16, 38]. […] We next evaluated the effects of the compounds on programed cell death (apoptosis) by determining their ability to induce cleaved caspase 3 in MDA-MB-468 cells.
(§3) Treatment of the human breast cancer (MDA-MB-468) cells and Western blotting were performed using the methods described by us previously [16, 38].
Data set [3] deals with Mcl-1 levels in MDA-MB-468 cells. Kind of data set: Western blotting of Mcl-1 levels in intact breast cancer cells. The note with it: 40 μM for 16 h.
Experimental: as §2, §3
The target in data set [4] is T1, Mcl-1/Bim (Homo sapiens, UniProt Q07820). The note with it: ELISA; average ± SEM, n ≥ 3; data previously reported; cited from earlier work.
Data set [5] addresses T2, Bcl-xL/Bim (Homo sapiens, UniProt Q07817). Kind of data set: ELISA, disruption of Bcl-xL binding to Bim. The note with it: for IC50: ELISA; for fold more potent than 1 against Bcl-xL/Bim: ELISA IC50 vs. marinopyrrole A (1). On the procedure: (§1) ELISAs were performed using a similar procedure as previously described. Briefly, 40 nM of biotinylated Bim BH3 peptide (Biomatik, Wilmington, DE, USA) in SuperBlock blocking buffer (Thermo Scientific Pierce, Rockford, IL, USA) was incubated in high-binding capacity streptavidin coated plates (Thermo Scientific Pierce, Rockford, IL, USA) for 2 h. Compounds were diluted in 120 µL of PBS containing 10 nM of GST-Mcl-1 or 10 nM GST-Bcl-xL in 1.5-mL tubes for 15 min. Wells were washed with wash buffer (PBS containing 0.05% Tween-20) and then 100 µL of the compound/GST-protein mixture was transferred to the Bim-containing wells. The plates were incubated for 2 h, and then, the wells were washed with wash buffer. HRP-conjugated anti-GST antibody (Bethyl Laboratories, Montgomery, TX, USA) was diluted 1:2000 in SuperBlock, and 100 µL were transferred to each well. The plate was incubated for 1 h, and then, the wells were washed with wash buffer followed by PBS. One hundred microliters of SureBlue TMB Microwell Peroxidase Substrate (VWR International, Radnor, PA, USA) was added to each well, and the plates were developed for 5–10 min. One hundred microliters of 1 N HCl was added to each well to stop the reaction, and the absorbance was read at 450 nm using a µQuant plate reader (Bio-Tek Instruments, Winooski, VT, USA).

For data set [6] the following is noted: aqueous; stated without method or reference; cited from earlier work.
Data set [7] has as its target T2, Bcl-xL/Bim. Details: method as in PMID 24608970. The note with it: ELISA; average ± SEM, n ≥ 3; data previously reported; cited from earlier work.
Data set [8] deals with T1, Mcl-1/Bim. Kind of data set: ELISA, disruption of Mcl-1 binding to Bim. The note with it: for IC50: ELISA; for fold more potent than 1 against Mcl-1/Bim: ELISA IC50 vs. marinopyrrole A (1). The procedure:
as §1

Another data set concerns the target T3, Mcl-1 (Homo sapiens, UniProt Q07820).
T3 construct: Recombinant His-tagged Mcl-1 (residues 172–327) was purified as previously described; His; made in house
Kind of data set: Fluorescence-quenching direct binding assay (intrinsic Trp fluorescence). The note with it: 2.5 μM His-tagged Mcl-1 (residues 172–327), pH 7.6. On the procedure: To confirm direct binding of the compounds to Mcl-1, we have established a fluorescence-quenching assay based on the intrinsic Trp fluorescence of Mcl-1 [37].
Recombinant His-tagged Mcl-1 (residues 172–327) was purified as previously described. Intrinsic Trp fluorescence of Mcl-1 was measured with a TECAN M1000 plate reader at excitation wavelength of 285 nm and emission wavelengths of 310–400 nm. Serial dilutions of compound 9 (starting from 20 μM) in 20 mM K-phosphate pH 7.6, […] was used to assay compound binding using 2.5 μM of Mcl-1. Each condition is run at triplicate and binding constants are calculated by nonlinear regression analysis of dose response curves using Prism software 6.0 (Graphpad, La Jolla, CA, USA). Control experiments included titration of DMSO solvent and fluorescence quenching of denatured Mcl-1 in the presence of compound.

Where [9] appears, read: average ± SEM, n ≥ 3 (n = 2 where given), 10 nM GST-Bcl-xL, 40 nM biotinylated Bim BH3 peptide, read-out: Bcl-xL/Bim IC50.
The mark [10] stands for this setting: average ± SEM, n ≥ 3, 10 nM GST-Mcl-1, 40 nM biotinylated Bim BH3 peptide, read-out: Mcl-1/Bim IC50.
[11] abbreviates: read-out: IC50 Bcl-xL/Bim disruption (abstract).
The mark [12] stands for this setting: read-out: IC50 Mcl-1/Bim disruption (abstract).

T2 sequence (Q07817 whole entry): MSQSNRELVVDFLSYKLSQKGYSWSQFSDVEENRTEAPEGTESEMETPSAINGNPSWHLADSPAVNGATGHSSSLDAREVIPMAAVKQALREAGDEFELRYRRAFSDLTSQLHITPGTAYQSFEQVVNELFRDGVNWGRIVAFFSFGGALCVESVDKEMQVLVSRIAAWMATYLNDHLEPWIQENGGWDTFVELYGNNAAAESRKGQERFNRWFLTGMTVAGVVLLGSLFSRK
T1 sequence (Q07820 whole entry): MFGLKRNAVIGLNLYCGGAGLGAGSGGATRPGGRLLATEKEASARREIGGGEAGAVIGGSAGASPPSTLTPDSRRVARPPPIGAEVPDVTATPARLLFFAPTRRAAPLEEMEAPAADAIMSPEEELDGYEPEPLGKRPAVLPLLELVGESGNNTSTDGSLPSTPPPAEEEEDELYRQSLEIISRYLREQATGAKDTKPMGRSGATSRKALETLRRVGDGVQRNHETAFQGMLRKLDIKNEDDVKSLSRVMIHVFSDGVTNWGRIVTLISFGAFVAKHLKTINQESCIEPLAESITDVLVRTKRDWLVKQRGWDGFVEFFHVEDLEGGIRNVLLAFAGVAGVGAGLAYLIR
T3 sequence (Q07820 172-327): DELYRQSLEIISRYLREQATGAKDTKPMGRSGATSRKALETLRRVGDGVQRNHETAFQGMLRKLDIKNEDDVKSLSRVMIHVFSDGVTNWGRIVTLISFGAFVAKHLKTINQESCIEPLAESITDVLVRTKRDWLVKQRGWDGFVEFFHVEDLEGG

Take `O=C(c1ccccc1O)c1[nH]c(Cl)c(Cl)c1-n1c(C(=O)c2ccccc2O)cc(Cl)c1Cl` [Compound 1, marinopyrrole A, reference compound]: the IC50 in the data set with MDA-MB-468 cells [1] (MTT, 48 h, compounds at 0, 0.5, 5 and 50 μM, estimated) is 2 µM; on Mcl-1/Bim [4], 8.9 ± 1 µM; at Bcl-xL/Bim [5] (setting [9]), 96.6 µM; on Bcl-xL/Bim [7], 16.4 ± 3.3 µM; at Mcl-1/Bim [8] (setting [10]), 25.1 ± 4.7 µM. Besides, in the data set with MDA-MB-468 cells [2], the “induction of apoptosis (cleaved caspase 3)” value (“induction of apoptosis” below) was “potently induced apoptosis”. Besides, in data set [3], the “decrease in the levels of Mcl-1” value is recorded as “significant decrease”. For the same molecule, the solubility entry in [6] is given as “poor solubility”.

On to `CCOC(=O)CSc1ccc(C(=O)c2[nH]c(Cl)c(Cl)c2-n2c(C(=O)c3ccc(SCC(=O)OCC)cc3O)cc(Cl)c2Cl)c(O)c1` [Compound 3], for which the IC50 was 3 µM in the data set on MDA-MB-468 cells [1] (Homo sapiens, MDA-MB-468, 48 h); 1.2 ± 0.2 µM on Bcl-xL/Bim [5] (setting [9]); 1.8 ± 0.3 µM on Mcl-1/Bim [8] (setting [10]). The “induction of apoptosis” value in the data set on MDA-MB-468 cells [2] is “potently induced apoptosis”. Also, the “decrease in the levels of Mcl-1” value in data set [3] was “highly potent”. In addition, the “fold more potent than 1 against Mcl-1/Bim” value at Mcl-1/Bim [8] is listed as “five”.

As for `O=C(c1ccc(SCc2ccccc2)cc1O)c1[nH]c(Cl)c(Cl)c1-n1c(C(=O)c2ccc(SCc3ccccc3)cc2O)cc(Cl)c1Cl` [Compound 4, (4,4′,5,5′-Tetrachloro-1′H-1,3′-bipyrrole-2,2′-diyl)bis(((2-hydroxy-4-benzylthio)phenyl)methanone)], the IC50 with MDA-MB-468 cells [1] (Homo sapiens, MDA-MB-468, 48 h) is 28 µM; at Bcl-xL/Bim [5] (setting [9]), 0.6 ± 0.2 µM; at Bcl-xL/Bim [5] (setting [11]), 0.7 µM; on Mcl-1/Bim [8] (setting [10]) it was 0.7 ± 0.2 µM; at Mcl-1/Bim [8] (setting [12]), 0.6 µM. In the data set on MDA-MB-468 cells [2], the “induction of apoptosis” value was “potently induced apoptosis”. In addition, the “decrease in the levels of Mcl-1” value in [3] is on record as “highly potent”. The “fold more potent than 1 against Bcl-xL/Bim” value on Bcl-xL/Bim [5] is on record as 27.3 fold. For the same molecule, the “fold more potent than 1 against Mcl-1/Bim” value on Mcl-1/Bim [8] was 12.7 fold.

In the case of `COc1ccc(CSc2ccc(C(=O)c3[nH]c(Cl)c(Cl)c3-n3c(C(=O)c4ccc(SCc5ccc(OC)cc5)cc4O)cc(Cl)c3Cl)c(O)c2)cc1` [Compound 5], the IC50 with MDA-MB-468 cells [1] (Homo sapiens, MDA-MB-468, 48 h) was 50 µM; at Bcl-xL/Bim [5] (setting [9]) it was 0.6 ± 0.1 µM; at Bcl-xL/Bim [5] (setting [11]), 0.7 µM; at Mcl-1/Bim [8] (setting [10]) it was 0.7 ± 0.1 µM; at Mcl-1/Bim [8] (setting [12]) it was 0.6 µM. In addition, in the data set with MDA-MB-468 cells [2], the “induction of apoptosis” value is “potently induced apoptosis”. The “decrease in the levels of Mcl-1” value in [3] was “highly potent”. The “fold more potent than 1 against Bcl-xL/Bim” value on Bcl-xL/Bim [5] came to 27.3 fold. Also, on Mcl-1/Bim [8], the “fold more potent than 1 against Mcl-1/Bim” value was determined as 12.7 fold.

In the case of `CCOC(=O)CS(=O)(=O)c1ccc(C(=O)c2[nH]c(Cl)c(Cl)c2-n2c(C(=O)c3ccc(S(=O)(=O)CC(=O)OCC)cc3O)cc(Cl)c2Cl)c(O)c1` [Compound 6], the IC50 is 50 µM in the data set with MDA-MB-468 cells [1] (Homo sapiens, MDA-MB-468, 48 h); greater than 100 µM on Bcl-xL/Bim [5] (setting [9]); 37.3 ± 3.1 µM at Mcl-1/Bim [8] (setting [10]). Moreover, in the data set on MDA-MB-468 cells [2], the “induction of apoptosis” value is recorded as “potently induced apoptosis”. The “decrease in the levels of Mcl-1” value in data set [3] is reported as “highly potent”.

As for `O=C(c1ccc(S(=O)(=O)Cc2ccccc2)cc1O)c1[nH]c(Cl)c(Cl)c1-n1c(C(=O)c2ccc(S(=O)(=O)Cc3ccccc3)cc2O)cc(Cl)c1Cl` [Compound 7, (4,4′,5,5′-Tetrachloro-1′H-1,3′-bipyrrole-2,2′-diyl)bis(((2-hydroxy-4-benzylsulfonyl)phenyl)methanone)], the IC50 in the data set with MDA-MB-468 cells [1] (Homo sapiens, MDA-MB-468, 48 h) was 20 µM; at Bcl-xL/Bim [5] (setting [9]), 69.3 ± 15.8 µM; on Mcl-1/Bim [8] (setting [10]), 7.3 ± 1.4 µM. For the same molecule, in the data set on MDA-MB-468 cells [2], the “induction of apoptosis” value is on record as “potently induced apoptosis”.

As for `COc1ccc(CS(=O)(=O)c2ccc(C(=O)c3[nH]c(Cl)c(Cl)c3-n3c(C(=O)c4ccc(S(=O)(=O)Cc5ccc(OC)cc5)cc4O)cc(Cl)c3Cl)c(O)c2)cc1` [Compound 8], the IC50 in the data set on MDA-MB-468 cells [1] (Homo sapiens, MDA-MB-468, 48 h) is 50 µM; on Bcl-xL/Bim [5] (setting [9]) it was greater than 100 µM; on Mcl-1/Bim [8] (setting [10]), 17.4 ± 3.1 µM. For the same molecule, the “induction of apoptosis” value in the data set with MDA-MB-468 cells [2] is “weak”. The “decrease in the levels of Mcl-1” value in data set [3] is “moderately active”.

`O=C(O)CSc1ccc(C(=O)c2[nH]c(Cl)c(Cl)c2-n2c(C(=O)c3ccc(SCC(=O)O)cc3O)cc(Cl)c2Cl)c(O)c1` [Compound 9]: the IC50 in the data set with MDA-MB-468 cells [1] (Homo sapiens, MDA-MB-468, 48 h) is 29 µM; at Bcl-xL/Bim [5] (setting [9]) it was greater than 100 µM; on Mcl-1/Bim [8] (setting [10]), 6.1 ± 1.3 µM. On Mcl-1, this molecule returned a dissociation constant Kd of 2.7 µM. In addition, the “induction of apoptosis” value in the data set on MDA-MB-468 cells [2] was “weak”. Also, the “decrease in the levels of Mcl-1” value in data set [3] is listed as “moderately active”. Moreover, at Mcl-1/Bim [8] (ratio of ELISA IC50 values), the “selectivity for Mcl-1/Bim over Bcl-xL/Bim” value is listed as 16.4 fold.

As for `O=C(O)CS(=O)(=O)c1ccc(C(=O)c2[nH]c(Cl)c(Cl)c2-n2c(C(=O)c3ccc(S(=O)(=O)CC(=O)O)cc3O)cc(Cl)c2Cl)c(O)c1` [Compound 10], the IC50 is 20 µM in the data set with MDA-MB-468 cells [1] (Homo sapiens, MDA-MB-468, 48 h); greater than 100 µM at Bcl-xL/Bim [5] (setting [9]); 63 ± 5.4 µM at Mcl-1/Bim [8] (setting [10]). Further, the “induction of apoptosis” value with MDA-MB-468 cells [2] is “potently induced apoptosis”. Besides, the “decrease in the levels of Mcl-1” value in [3] is “highly potent”.

As to `CCOC(=O)c1cc(Cl)c(Cl)n1-c1c(C(=O)c2ccccc2O)[nH]c(Cl)c1Cl` [Compound 11], in the data set with MDA-MB-468 cells [1] (Homo sapiens, MDA-MB-468, 48 h), the IC50 was 2 µM. Moreover, the “induction of apoptosis” value in the data set with MDA-MB-468 cells [2] is recorded as “potently induced apoptosis”. The “decrease in the levels of Mcl-1” value in [3] is reported as “highly potent”.

On to `CCOC(=O)c1[nH]c(Cl)c(Cl)c1-n1c(C(=O)c2ccccc2O)cc(Cl)c1Cl` [Compound 12], for which the IC50 in the data set with MDA-MB-468 cells [1] (Homo sapiens, MDA-MB-468, 48 h) was 16 µM; at Bcl-xL/Bim [5] (setting [9]), 17.6 ± 4.5 µM; on Mcl-1/Bim [8] (setting [10]), 11.5 ± 1.9 µM. Besides, the “induction of apoptosis” value in the data set on MDA-MB-468 cells [2] is given as “weak”. Moreover, the “decrease in the levels of Mcl-1” value in data set [3] is listed as “moderately active”.
